# Values of other authors in patent publication US20060013877A1 (Nanohybrid Co., Ltd., priority 2002, published 2006).
structure (smiles),measurement,value
"CCC(C)n1ncn(-c2ccc(N3CCN(c4ccc(OC[C@H]5CO[C@](Cn6cncn6)(c6ccc(Cl)cc6Cl)O5)cc4)CC3)cc2)c1=O (mixture of isomers) [itraconazole, (±)-cis-4-[4-[4-[4-[[2-(2,4-dichlorophenyl)-2-(1H-1,2,4-triazole-1-ylmethyl)-1,3-dioxoran-4-yl]methoxy]phenyl]-1-piperazinyl]phenyl]-2,4-dihydro-2-(1-methylpropyl)-3H-1,2,4-triazole-3-one]",water solubility,about 1 mg/ml
